These results are taken from article PMC4013293 (Bioorganic & medicinal chemistry, 2013).

Usually IC50 stands for the concentration needed to halve the response being measured.

The first experiment deals with ERβ (Homo sapiens, UniProt Q92731). Description: Cell-based ERβ luciferase reporter luminescence assay, agonist mode. As to conditions: read-out: ERβ agonist IC50; luciferase reporter cells, 22 h, duplicate. (In general: A reporter such as luciferase makes a cellular process visible.)
Chain of ERβ (Q92731 whole entry): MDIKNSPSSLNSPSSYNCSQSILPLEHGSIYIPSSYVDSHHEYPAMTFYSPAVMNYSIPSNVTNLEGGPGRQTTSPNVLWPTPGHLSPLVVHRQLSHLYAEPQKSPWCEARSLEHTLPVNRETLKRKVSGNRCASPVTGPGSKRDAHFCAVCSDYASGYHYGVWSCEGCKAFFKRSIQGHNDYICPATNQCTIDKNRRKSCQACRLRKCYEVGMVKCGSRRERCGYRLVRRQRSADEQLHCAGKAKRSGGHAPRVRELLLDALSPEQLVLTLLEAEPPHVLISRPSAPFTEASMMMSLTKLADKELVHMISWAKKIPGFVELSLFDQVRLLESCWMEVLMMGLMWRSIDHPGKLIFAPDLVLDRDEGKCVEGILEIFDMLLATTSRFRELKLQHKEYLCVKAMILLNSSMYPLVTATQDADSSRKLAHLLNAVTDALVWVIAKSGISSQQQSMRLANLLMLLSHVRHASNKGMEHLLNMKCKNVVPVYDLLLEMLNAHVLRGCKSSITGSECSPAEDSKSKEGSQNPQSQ
With `OC[C@H]1CCC[C@@H](c2ccc(O)cc2)CC1` (relative stereo) [Compound 18, cis-1-Hydroxymethyl-4-(4′-hydroxyphenyl)-cycloheptane], the IC50 stood at 5.4 ± 0.3 nM.

For the next experiment, the target named is T1, human ERα (Homo sapiens, UniProt P03372).
T1 sequence (P03372 1-595): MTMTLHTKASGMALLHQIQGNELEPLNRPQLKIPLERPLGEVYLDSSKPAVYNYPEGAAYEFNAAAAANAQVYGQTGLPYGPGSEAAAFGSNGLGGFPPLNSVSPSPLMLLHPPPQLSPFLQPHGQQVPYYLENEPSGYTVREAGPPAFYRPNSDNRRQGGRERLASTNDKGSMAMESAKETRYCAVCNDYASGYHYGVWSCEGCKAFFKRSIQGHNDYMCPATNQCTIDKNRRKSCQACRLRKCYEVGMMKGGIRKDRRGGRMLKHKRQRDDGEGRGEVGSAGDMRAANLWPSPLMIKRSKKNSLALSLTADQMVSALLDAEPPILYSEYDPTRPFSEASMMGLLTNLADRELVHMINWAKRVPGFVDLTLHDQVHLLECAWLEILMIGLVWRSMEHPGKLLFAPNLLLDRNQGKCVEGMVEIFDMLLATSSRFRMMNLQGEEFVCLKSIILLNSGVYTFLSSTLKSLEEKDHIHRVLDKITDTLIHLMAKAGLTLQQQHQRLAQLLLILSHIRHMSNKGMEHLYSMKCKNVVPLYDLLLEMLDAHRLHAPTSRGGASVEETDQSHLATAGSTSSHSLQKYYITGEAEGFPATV
Description: Fluorescence polarization displacement assay with FITC-estradiol. It is filed as binding. The following applies: fluorescence polarization screen of twelve compounds.
As to `OC[C@H]1CCC[C@@H](c2ccc(O)cc2)CC1` (relative stereo) [Compound 18, cis-1-Hydroxymethyl-4-(4′-hydroxyphenyl)-cycloheptane], the “Affinity for ERα at concentrations as high as 1 μM (in words)” value is “significant affinity”.
Still for that read-out and setting: next, `CC1C[C@H](C)C2(CC[C@H]3[C@@H]4CCc5cc(O)ccc5[C@H]4CC[C@@]32C)O1` (stereo partly drawn) [Compound 13, 17,23-Epoxy-3-hydroxy-19-norchola-1,3,5(10)-triene]: “significant affinity”; `C[C@@H](CCO)C1=CC[C@H]2[C@@H]3CCc4cc(O)ccc4[C@H]3CC[C@]12C` [Compound 11, (20S) 3-Hydroxy-19,24-Dinorchola-1,3,5(10),16-tetraen-23-ol]: “significant affinity”; `CCCOC(=O)C1CC[C@H]2[C@@H]3CCc4cc(O)ccc4[C@H]3CC[C@]12C` (stereo partly drawn) [Compound 4, n-Propyl 3-hydroxyestra-1,3,5(10)-triene-17-carboxylate]: “significant affinity”.
Same read-out and setting: under `CC[C@H](C)C1=CC[C@H]2[C@@H]3CCc4cc(O)ccc4[C@H]3CC[C@]12C` [Compound 7, (20S) 3-Hydroxy-19,24-dinorchola-1,3,5(10),16-tetraene] stands “significant affinity”.
